Results: US6534041B1, “Acid-labile and enzymatically divisible dye compounds for diagnosis with near infrared light and for therapy” (Institute for Diagnostic Research GmbH of the Free …, priority 1997, dated 2003)

What was measured:
[1] = in DMSO; according to Benson and Kues 1977; cited from earlier work
VIS/NIR absorption = type: physicochemical; details: H2O

| Absorption λmax (VIS/NIR absorption) [nm] | Absorption coefficient ξ at λmax (VIS/NIR absorption; 748 nm) | SMILES | Fluorescence quantum yield Q (standard) [1] [%] |
| --- | --- | --- | --- |
|  |  | CC1(C)C(/C=C/C=C/C=C/C=C2\N(CCCCS(=O)(=O)O)c3ccc4ccccc4c3C2(C)C)=[N+](CCCCS(=O)(=O)[O-])c2ccc3ccccc3c21 [indocyanine green] | 13 |
| 748 | 14,800 1 mol^−1 cm^−1 | CC(=O)c1ccc2c(c1)C(C)(C)C(C=CC=CC=CC=C1N(CCCCS(=O)(=O)[O-])c3ccccc3C1(C)C)=[N+]2CCCCS(=O)(=O)[O-].[Na+] [compound 1, 5-(1-oxoethyl)-1,1′-(4-sulfobutyl)-indotricarbocyanine-sodium salt] |  |
